Laboratory results published in US20260200888A1, “BIO-BASED COMPOUNDS” (SPECIALTY OPERATIONS FRANCE, priority 2022, published 2026).

Experiments:
[1] = Solubility of mono-fungicides in the solvent of Example 1 and prior art solvents (Example 2); details: for Maximum solubility (w/v) in Cyrene: solvent Cyrene; for Maximum solubility (w/v) in Example 1: solvent Example 1; for Maximum solubility (w/v) in Rhodiasolv ADMA10: solvent Rhodiasolv ADMA10; for Maximum solubility (w/v) in Rhodiasolv PolarClean: solvent Rhodiasolv PolarClean
From the text: The concentration of the fungicides (w/v) was increased in 5% intervals and the highest still soluble concentration is stated in the table below.

[2] = Solubility of mono-fungicides in the solvent of Example 6 and prior art solvents (Example 7); details: 24° C.; for Maximum solubility (w/v) in Cyrene: solvent Cyrene; for Maximum solubility (w/v) in Example 6: solvent Example 6; for Maximum solubility (w/v) in Rhodiasolv ADMA10: solvent Rhodiasolv ADMA10
[3] = in Cyrene and NBP
[4] = 24° C., 5% intervals, highest still soluble concentration

SMILES | Maximum solubility (w/v) in Cyrene ([1]; 0° C. after seeding) | Maximum solubility (w/v) in Cyrene ([1]; 24° C.) | Maximum solubility (w/v) in Example 1 ([1]; 0° C. after seeding) | Maximum solubility (w/v) in Example 1 [1, 4] | Maximum solubility (w/v) in Rhodiasolv ADMA10 ([1]; 0° C. after seeding) | Maximum solubility (w/v) in Rhodiasolv ADMA10 ([1]; 24° C.) | Maximum solubility (w/v) in Rhodiasolv PolarClean ([1]; 0° C. after seeding) | Maximum solubility (w/v) in Rhodiasolv PolarClean ([1]; 24° C.) | Maximum solubility (w/v) in Cyrene [2] | Maximum solubility (w/v) in Example 6 [2] | Maximum solubility (w/v) in Rhodiasolv ADMA10 [2] | Viscosity of the resulting NBPT solution ([3]; even at 35% (w/v)) | Appearance of the NBPT solution ([3]; even at low concentrations)
CO/C=C(/C(=O)OC)c1ccccc1Oc1cc(Oc2ccccc2C#N)ncn1 [Azoxystrobin] | 20% (20%) % (w/v) | 20% (20%) % (w/v) | 10% (10%) % (w/v) | 10% (10%) % (w/v) | (2%) % (w/v) | 2% (w/v) | (5%) % (w/v) | 15% (w/v) | 20% (w/v) | 10% (w/v) | 2% (w/v) |  | 
CCCCNP(N)(N)=S [NBPT, N-(n-butyl)thiophosphoric triamide] |  |  |  |  |  |  |  |  |  |  |  | highly viscous | yellow discoloration
OC(Cc1ccccc1Cl)(Cn1nc[nH]c1=S)C1(Cl)CC1 (stereo not drawn) [Prothioconazole] | 10% (10%) % (w/v) | 10% (10%) % (w/v) | 50% (50%) % (w/v) | 50% (50%) % (w/v) | (40%) % (w/v) | 40% (w/v) | (50%) % (w/v) | 50% (w/v) | 10% (w/v) | >30% (w/v) | 40% (w/v) |  | 
COC(=O)N(OC)c1ccccc1COc1ccn(-c2ccc(Cl)cc2)n1 [Pyraclostrobin] | 45% (45%) % (w/v) | 45% (45%) % (w/v) | 45% (45%) % (w/v) | 45% (45%) % (w/v) | (10) % (w/v) | 15% (w/v) | (45%) % (w/v) | 45% (w/v) | 45% (w/v) | >25% (w/v) | 15% (w/v) |  | 
CC(C)N(C)S(=O)(=O)NC(=O)c1cc(-n2c(=O)cc(C(F)(F)F)n(C)c2=O)c(F)cc1Cl [Saflufenacil] | 10% (10%) % (w/v) | 10% (10%) % (w/v) | 20% (20%) % (w/v) | 20% (20%) % (w/v) | (10%) % (w/v) | 10% (w/v) | (25%) % (w/v) | 25% (w/v) | 10% (w/v) | >10% (w/v) | 10% (w/v) |  | 
CC(C)(C)C(O)(CCc1ccc(Cl)cc1)Cn1cncn1 (stereo not drawn) [Tebuconazole] |  |  |  |  | (20%) % (w/v) |  | (30%) % (w/v) |  |  |  |  |  | 
